Here are results for 14 compounds from PubChem BioAssay AID220 (DTP/NCI, 2004).

The structures appear in SMILES notation. “And” between values parts separate entries of the source, which are not always exact repeats. Equal values may be shown once. Inconclusive results are not listed.

The assay relates to CD8F1 mice, subcutaneous mammary adenocarcinoma, T/C%. The assay can be described thus: NCI In Vivo Anticancer Drug Screen. Data for tumor model Mammary Adenocarcinoma CD8F1 (subcutaneous) in CD8F1. Conditions: higher = larger tumour. In short, it runs like this: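 Transplantable tumors were established in mice, animals were dosed with compound or vehicle, and survival or tumor size was then measured in both groups. The treated result was divided by the control result.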

The mark [1] stands for this setting: endpoint: median tumor weight (est.), dose: 100.0 mg/kg/injection, schedule: Q07DX005 (ip), vehicle: saline.
Setting [2] is: endpoint: median tumor weight (est.), dose: 200.0 mg/kg/injection, schedule: Q07DX005 (ip), vehicle: saline.
[3] abbreviates: endpoint: median tumor weight (est.), dose: 400.0 mg/kg/injection, schedule: Q07DX005 (ip), vehicle: saline.
The mark [4] stands for this setting: endpoint: median tumor weight change, dose: 62.5 mg/kg/injection, schedule: Q01DX001 (ip), vehicle: saline with Tween-80.
[5] abbreviates: endpoint: median tumor weight change, dose: 125.0 mg/kg/injection, schedule: Q01DX001 (ip), vehicle: saline with Tween-80.
[6] abbreviates: endpoint: median tumor weight change, dose: 250.0 mg/kg/injection, schedule: Q01DX001 (ip), vehicle: saline with Tween-80.
The mark [7] stands for this setting: endpoint: median tumor weight change, dose: 125.0 mg/kg/injection, schedule: Q01DX001 (ip), vehicle: suspension in saline.
Where [8] appears, read: endpoint: median tumor weight change, dose: 250.0 mg/kg/injection, schedule: Q01DX001 (ip), vehicle: suspension in saline.
Setting [9] is: endpoint: median tumor weight change, dose: 500.0 mg/kg/injection, schedule: Q01DX001 (ip), vehicle: suspension in saline.

Regarding `O=c1[nH]c(=O)n(C2CC(O)C(CO)O2)cc1F` (stereo unspecified), the T/C is 50 % of control (endpoint: mean tumor weight, dose: 25.0 mg/kg/injection, schedule: Q01DX009 (ip), vehicle: saline); 20 % of control (endpoint: mean tumor weight, dose: 50.0 mg/kg/injection, schedule: Q01DX009 (ip), vehicle: saline); 30 % of control (endpoint: mean tumor weight, dose: 100.0 mg/kg/injection, schedule: Q01DX009 (ip), vehicle: saline); 585 % of control (endpoint: mean tumor weight, dose: 125.0 mg/kg/injection, schedule: Q07DX005 (ip), vehicle: saline); 49 % of control (endpoint: mean tumor weight, dose: 125.0 mg/kg/injection, schedule: Q07DX006 (ip), vehicle: saline); 180 % of control (endpoint: mean tumor weight, dose: 250.0 mg/kg/injection, schedule: Q07DX005 (ip), vehicle: saline). Moreover, the T/C by setting is: (endpoint: mean tumor weight, dose: 250.0 mg/kg/injection, schedule: Q07DX006 (ip), vehicle: saline) 6 % of control; (endpoint: mean tumor weight, dose: 500.0 mg/kg/injection, schedule: Q07DX005 (ip), vehicle: saline) 473 % of control; (endpoint: median tumor weight (est.), dose: 12.5 mg/kg/injection, schedule: Q07DX005 (ip), vehicle: saline) 97 % of control; (endpoint: median tumor weight (est.), dose: 25.0 mg/kg/injection, schedule: Q07DX005 (ip), vehicle: saline) 116 % of control; (endpoint: median tumor weight (est.), dose: 50.0 mg/kg/injection, schedule: Q07DX005 (ip), vehicle: saline) 72 % of control and 81 % of control; under setting [1], 62 % of control and 78 % of control. Also, the T/C was 27 % of control and 46 % of control under setting [2]; 5 % of control and 11 % of control under setting [3].

Take `CC1=C(O)C(=O)[C@@H]2O[C@@H]2C1=O`: the T/C is 54 % of control (endpoint: median tumor weight change, dose: 7.8 mg/kg/injection, schedule: Q01DX001 (ip), vehicle: saline); 81 % of control (endpoint: median tumor weight change, dose: 15.6 mg/kg/injection, schedule: Q01DX001 (ip), vehicle: saline); 48 % of control (endpoint: median tumor weight change, dose: 31.25 mg/kg/injection, schedule: Q01DX001 (ip), vehicle: saline).

`CC(=O)ON(C(C)=O)c1ccc(C(N)=O)cc1`: the T/C is, setting by setting: under setting [4], 68 % of control; under setting [5], 96 % of control; under setting [6], 64 % of control.

As for `O=C1NC(=O)NC(C(=O)O)N1`, the T/C (endpoint: median tumor weight change, dose: 12.0 mg/kg/injection, schedule: Q01DX001 (ip), vehicle: DMSO) was 79 % of control; the T/C (endpoint: median tumor weight change, dose: 25.0 mg/kg/injection, schedule: Q01DX001 (ip), vehicle: DMSO) is 104 % of control; the T/C (endpoint: median tumor weight change, dose: 50.0 mg/kg/injection, schedule: Q01DX001 (ip), vehicle: DMSO) was 79 % of control; the T/C (endpoint: median tumor weight change, dose: 75.0 mg/kg/injection, schedule: Q01DX001 (ip), vehicle: DMSO) is 83 % of control; the T/C (endpoint: median tumor weight change, dose: 100.0 mg/kg/injection, schedule: Q01DX001 (ip), vehicle: DMSO) was 73 % of control; the T/C (endpoint: median tumor weight change, dose: 150.0 mg/kg/injection, schedule: Q01DX001 (ip), vehicle: DMSO) was 96 % of control. The T/C by setting is: (endpoint: median tumor weight change, dose: 200.0 mg/kg/injection, schedule: Q01DX001 (ip), vehicle: DMSO) 83 % of control; (endpoint: median tumor weight change, dose: 300.0 mg/kg/injection, schedule: Q01DX001 (ip), vehicle: DMSO) 86 % of control; (endpoint: median tumor weight change, dose: 400.0 mg/kg/injection, schedule: Q01DX001 (ip), vehicle: DMSO) 56 % of control; (endpoint: median tumor weight change, dose: 600.0 mg/kg/injection, schedule: Q01DX001 (ip), vehicle: DMSO) 80 % of control.

Consider `O=C(O)CP(=O)(O)O`, for which the T/C is, setting by setting: under setting [1], 90 % of control; under setting [2], 97 % of control; under setting [3], 57 % of control; (endpoint: median tumor weight (est.), dose: 800.0 mg/kg/injection, schedule: Q07DX005 (ip), vehicle: saline) 79 % of control.

For the compound `CCNC(C)(C)C(SSS)c1ccco1` (stereo unspecified), the T/C runs as follows: (endpoint: median tumor weight change, dose: 31.25 mg/kg/injection, schedule: Q01DX001 (ip), vehicle: saline with Tween-80) 97 % of control; under setting [4], 87 % of control; under setting [5], 65 % of control; under setting [6], 59 % of control.

`O=CC(S)CO` (stereo unspecified): the T/C was 165 % of control (endpoint: median tumor weight (est.), dose: 12.5 mg/kg/injection, schedule: Q07DX005 (ip), vehicle: suspension in saline); 231 % of control and 88 % of control (endpoint: median tumor weight (est.), dose: 25.0 mg/kg/injection, schedule: Q07DX005 (ip), vehicle: suspension in saline); 112 % of control (endpoint: median tumor weight (est.), dose: 50.0 mg/kg/injection, schedule: Q07DX005 (ip), vehicle: suspension in saline); 102 % of control (endpoint: median tumor weight (est.), dose: 200.0 mg/kg/injection, schedule: Q07DX005 (ip), vehicle: suspension in saline).

Turning to `CCCCCNc1ncnc2c(C)[nH]nc12`, the T/C is, setting by setting: (endpoint: median tumor weight change, dose: 62.5 mg/kg/injection, schedule: Q01DX001 (ip), vehicle: Klucel (hydroxypropylcellulose) (HPC)) 101 % of control; (endpoint: median tumor weight change, dose: 125.0 mg/kg/injection, schedule: Q01DX001 (ip), vehicle: Klucel (hydroxypropylcellulose) (HPC)) 89 % of control; (endpoint: median tumor weight change, dose: 250.0 mg/kg/injection, schedule: Q01DX001 (ip), vehicle: Klucel (hydroxypropylcellulose) (HPC)) 71 % of control.

Turning to `Cc1cc(C)c(-c2cc(O)c(C)cc2O)c(C)c1`, the T/C (endpoint: median tumor weight (est.), dose: 12.5 mg/kg/injection, schedule: Q07DX005 (ip), vehicle: Klucel (hydroxypropylcellulose) (HPC)) was 56 % of control; the T/C (endpoint: median tumor weight (est.), dose: 25.0 mg/kg/injection, schedule: Q07DX005 (ip), vehicle: Klucel (hydroxypropylcellulose) (HPC)) was 150 % of control and 267 % of control; the T/C (endpoint: median tumor weight (est.), dose: 50.0 mg/kg/injection, schedule: Q07DX005 (ip), vehicle: Klucel (hydroxypropylcellulose) (HPC)) was 81 % of control; the T/C (endpoint: median tumor weight (est.), dose: 200.0 mg/kg/injection, schedule: Q07DX005 (ip), vehicle: Klucel (hydroxypropylcellulose) (HPC)) was 71 % of control; the T/C (endpoint: median tumor weight (est.), dose: 400.0 mg/kg/injection, schedule: Q07DX005 (ip), vehicle: Klucel (hydroxypropylcellulose) (HPC)) is 28 % of control.

For the compound `N=C(N)SCc1cccc2c(=O)cc(-c3ccccc3)oc12`, the T/C was 151 % of control under setting [7]; 151 % of control under setting [8]; 106 % of control under setting [9]; 123 % of control (endpoint: median tumor weight change, dose: 1000.0 mg/kg/injection, schedule: Q01DX001 (ip), vehicle: suspension in saline).

For the compound `CC[C@]1(O)C[C@H]2CN(CCc3c([nH]c4ccccc34)[C@@](C(=O)OC)(c3cc4c(cc3OC)N(C)[C@H]3[C@@](O)(C(=O)OC)[C@H](OC(C)=O)[C@]5(CC)C=CCN6CC[C@]43[C@@H]65)C2)C1`, the T/C (endpoint: median tumor weight (est.), dose: 0.25 mg/kg/injection, schedule: Q07DX005 (ip), vehicle: saline) is 70 % of control and 71 % of control; the T/C (endpoint: median tumor weight (est.), dose: 0.5 mg/kg/injection, schedule: Q07DX005 (ip), vehicle: saline) is 63 % of control and 83 % of control and 84 % of control; the T/C (endpoint: median tumor weight change, dose: 1.0 mg/kg/injection, schedule: Q01DX001 (ip), vehicle: saline) was 81 % of control; the T/C (endpoint: median tumor weight change, dose: 2.0 mg/kg/injection, schedule: Q01DX001 (ip), vehicle: saline) is 56 % of control; the T/C (endpoint: median tumor weight change, dose: 4.0 mg/kg/injection, schedule: Q01DX001 (ip), vehicle: saline) was 28 % of control.

In the case of `Cc1ccc(S(=O)(=O)NC(=O)OC23COCN2COC3)cc1`, the T/C runs as follows: (endpoint: median tumor weight change, dose: 125.0 mg/kg/injection, schedule: Q01DX001 (ip), vehicle: water) 170 % of control; under setting [6], 111 % of control; (endpoint: median tumor weight change, dose: 500.0 mg/kg/injection, schedule: Q01DX001 (ip), vehicle: saline with Tween-80) 90 % of control; (endpoint: median tumor weight change, dose: 500.0 mg/kg/injection, schedule: Q01DX001 (ip), vehicle: water) 162 % of control; (endpoint: median tumor weight change, dose: 1000.0 mg/kg/injection, schedule: Q01DX001 (ip), vehicle: water) 222 % of control; (endpoint: median tumor weight change, dose: 2000.0 mg/kg/injection, schedule: Q01DX001 (ip), vehicle: saline with Tween-80) 74 % of control. Further, under “endpoint: median tumor weight change, dose: 2000.0 mg/kg/injection, schedule: Q01DX001 (ip), vehicle: water”, the T/C was 184 % of control.

Turning to `Nc1nc2n[nH]nc2c(=O)[nH]1`, the T/C under setting [8] is 73 % of control and the T/C under setting [9] is 45 % of control.

As for `C=C1C(=O)OCC1C(=O)O` (stereo unspecified), the T/C runs as follows: (endpoint: median tumor weight change, dose: 15.62 mg/kg/injection, schedule: Q01DX001 (ip), vehicle: suspension in saline) 101 % of control; (endpoint: median tumor weight change, dose: 62.5 mg/kg/injection, schedule: Q01DX001 (ip), vehicle: suspension in saline) 89 % of control; under setting [7], 123 % of control.
